The OligoGym collection
Oligonucleotides are given in HELM: sugar(base)linkage, 5' to 3'; d 2'-deoxyribose, r ribose, m 2'-O-methylribose, p phosphate. ss, as = sense and antisense strand

target: TMEM63B; experiment: reporter assay of Huesken 2005; details: siRNA
Also: test concentration or dose not given here.

Substance	normalised inhibition (eCFP-eYFP dual reporter) [%]
RNA1{r(A)p.r(C)p.r(C)p.r(A)p.r(G)p.r(G)p.r(U)p.r(G)p.r(G)p.r(U)p.r(G)p.r(G)p.r(C)p.r(C)p.r(G)p.r(C)p.r(G)p.r(C)p.r(C)p.d(T)p.d(T)}|RNA2{r(G)p.r(G)p.r(C)p.r(G)p.r(C)p.r(G)p.r(G)p.r(C)p.r(C)p.r(A)p.r(C)p.r(C)p.r(A)p.r(C)p.r(C)p.r(U)p.r(G)p.r(G)p.r(U)p.d(T)p.d(C)}$$$RNA1{StrandType:ss}|RNA2{StrandType:as}$	57.6
RNA1{r(A)p.r(C)p.r(C)p.r(C)p.r(U)p.r(G)p.r(C)p.r(U)p.r(G)p.r(C)p.r(U)p.r(G)p.r(U)p.r(G)p.r(G)p.r(U)p.r(G)p.r(C)p.r(U)p.d(T)p.d(T)}|RNA2{r(A)p.r(G)p.r(C)p.r(A)p.r(C)p.r(C)p.r(A)p.r(C)p.r(A)p.r(G)p.r(C)p.r(A)p.r(G)p.r(C)p.r(A)p.r(G)p.r(G)p.r(G)p.r(U)p.d(G)p.d(G)}$$$RNA1{StrandType:ss}|RNA2{StrandType:as}$	58.5
RNA1{r(A)p.r(C)p.r(G)p.r(C)p.r(U)p.r(C)p.r(U)p.r(G)p.r(G)p.r(G)p.r(G)p.r(A)p.r(G)p.r(A)p.r(A)p.r(C)p.r(A)p.r(G)p.r(G)p.d(T)p.d(T)}|RNA2{r(C)p.r(C)p.r(U)p.r(G)p.r(U)p.r(U)p.r(C)p.r(U)p.r(C)p.r(C)p.r(C)p.r(C)p.r(A)p.r(G)p.r(A)p.r(G)p.r(C)p.r(G)p.r(U)p.d(G)p.d(T)}$$$RNA1{StrandType:ss}|RNA2{StrandType:as}$	48.3
RNA1{r(A)p.r(C)p.r(G)p.r(G)p.r(A)p.r(C)p.r(A)p.r(C)p.r(A)p.r(G)p.r(A)p.r(C)p.r(U)p.r(U)p.r(C)p.r(C)p.r(A)p.r(G)p.r(U)p.d(T)p.d(T)}|RNA2{r(A)p.r(C)p.r(U)p.r(G)p.r(G)p.r(A)p.r(A)p.r(G)p.r(U)p.r(C)p.r(U)p.r(G)p.r(U)p.r(G)p.r(U)p.r(C)p.r(C)p.r(G)p.r(U)p.d(G)p.d(A)}$$$RNA1{StrandType:ss}|RNA2{StrandType:as}$	85.7
RNA1{r(A)p.r(C)p.r(U)p.r(A)p.r(C)p.r(A)p.r(A)p.r(G)p.r(C)p.r(G)p.r(G)p.r(G)p.r(A)p.r(G)p.r(A)p.r(A)p.r(G)p.r(G)p.r(A)p.d(T)p.d(T)}|RNA2{r(U)p.r(C)p.r(C)p.r(U)p.r(U)p.r(C)p.r(U)p.r(C)p.r(C)p.r(C)p.r(G)p.r(C)p.r(U)p.r(U)p.r(G)p.r(U)p.r(A)p.r(G)p.r(U)p.d(C)p.d(T)}$$$RNA1{StrandType:ss}|RNA2{StrandType:as}$	72
RNA1{r(A)p.r(C)p.r(U)p.r(U)p.r(G)p.r(A)p.r(A)p.r(A)p.r(U)p.r(C)p.r(A)p.r(G)p.r(G)p.r(G)p.r(A)p.r(A)p.r(C)p.r(A)p.r(A)p.d(T)p.d(T)}|RNA2{r(U)p.r(U)p.r(G)p.r(U)p.r(U)p.r(C)p.r(C)p.r(C)p.r(U)p.r(G)p.r(A)p.r(U)p.r(U)p.r(U)p.r(C)p.r(A)p.r(A)p.r(G)p.r(U)p.d(T)p.d(G)}$$$RNA1{StrandType:ss}|RNA2{StrandType:as}$	34.4
RNA1{r(A)p.r(G)p.r(A)p.r(G)p.r(A)p.r(G)p.r(G)p.r(A)p.r(A)p.r(G)p.r(A)p.r(A)p.r(G)p.r(G)p.r(C)p.r(C)p.r(G)p.r(A)p.r(G)p.d(T)p.d(T)}|RNA2{r(C)p.r(U)p.r(C)p.r(G)p.r(G)p.r(C)p.r(C)p.r(U)p.r(U)p.r(C)p.r(U)p.r(U)p.r(C)p.r(C)p.r(U)p.r(C)p.r(U)p.r(C)p.r(U)p.d(G)p.d(C)}$$$RNA1{StrandType:ss}|RNA2{StrandType:as}$	49.4
RNA1{r(A)p.r(G)p.r(A)p.r(G)p.r(G)p.r(C)p.r(G)p.r(C)p.r(A)p.r(A)p.r(C)p.r(G)p.r(U)p.r(G)p.r(A)p.r(A)p.r(G)p.r(C)p.r(G)p.d(T)p.d(T)}|RNA2{r(C)p.r(G)p.r(C)p.r(U)p.r(U)p.r(C)p.r(A)p.r(C)p.r(G)p.r(U)p.r(U)p.r(G)p.r(C)p.r(G)p.r(C)p.r(C)p.r(U)p.r(C)p.r(U)p.d(C)p.d(G)}$$$RNA1{StrandType:ss}|RNA2{StrandType:as}$	35.7
RNA1{r(A)p.r(G)p.r(C)p.r(A)p.r(G)p.r(G)p.r(U)p.r(G)p.r(G)p.r(A)p.r(G)p.r(G)p.r(C)p.r(C)p.r(A)p.r(U)p.r(U)p.r(G)p.r(A)p.d(T)p.d(T)}|RNA2{r(U)p.r(C)p.r(A)p.r(A)p.r(U)p.r(G)p.r(G)p.r(C)p.r(C)p.r(U)p.r(C)p.r(C)p.r(A)p.r(C)p.r(C)p.r(U)p.r(G)p.r(C)p.r(U)p.d(C)p.d(A)}$$$RNA1{StrandType:ss}|RNA2{StrandType:as}$	77.2
RNA1{r(A)p.r(G)p.r(C)p.r(C)p.r(U)p.r(A)p.r(C)p.r(C)p.r(C)p.r(C)p.r(A)p.r(A)p.r(C)p.r(U)p.r(G)p.r(C)p.r(A)p.r(C)p.r(A)p.d(T)p.d(T)}|RNA2{r(U)p.r(G)p.r(U)p.r(G)p.r(C)p.r(A)p.r(G)p.r(U)p.r(U)p.r(G)p.r(G)p.r(G)p.r(G)p.r(U)p.r(A)p.r(G)p.r(G)p.r(C)p.r(U)p.d(T)p.d(C)}$$$RNA1{StrandType:ss}|RNA2{StrandType:as}$	70.7
RNA1{r(A)p.r(G)p.r(C)p.r(U)p.r(C)p.r(A)p.r(G)p.r(G)p.r(G)p.r(G)p.r(A)p.r(U)p.r(G)p.r(A)p.r(G)p.r(C)p.r(C)p.r(C)p.r(C)p.d(T)p.d(T)}|RNA2{r(G)p.r(G)p.r(G)p.r(G)p.r(C)p.r(U)p.r(C)p.r(A)p.r(U)p.r(C)p.r(C)p.r(C)p.r(C)p.r(U)p.r(G)p.r(A)p.r(G)p.r(C)p.r(U)p.d(C)p.d(C)}$$$RNA1{StrandType:ss}|RNA2{StrandType:as}$	43
RNA1{r(A)p.r(G)p.r(G)p.r(A)p.r(G)p.r(G)p.r(A)p.r(U)p.r(G)p.r(A)p.r(U)p.r(C)p.r(U)p.r(G)p.r(G)p.r(U)p.r(G)p.r(A)p.r(A)p.d(T)p.d(T)}|RNA2{r(U)p.r(U)p.r(C)p.r(A)p.r(C)p.r(C)p.r(A)p.r(G)p.r(A)p.r(U)p.r(C)p.r(A)p.r(U)p.r(C)p.r(C)p.r(U)p.r(C)p.r(C)p.r(U)p.d(T)p.d(G)}$$$RNA1{StrandType:ss}|RNA2{StrandType:as}$	77.4
RNA1{r(A)p.r(G)p.r(G)p.r(U)p.r(G)p.r(C)p.r(U)p.r(G)p.r(C)p.r(A)p.r(G)p.r(G)p.r(A)p.r(C)p.r(U)p.r(C)p.r(A)p.r(G)p.r(A)p.d(T)p.d(T)}|RNA2{r(U)p.r(C)p.r(U)p.r(G)p.r(A)p.r(G)p.r(U)p.r(C)p.r(C)p.r(U)p.r(G)p.r(C)p.r(A)p.r(G)p.r(C)p.r(A)p.r(C)p.r(C)p.r(U)p.d(G)p.d(A)}$$$RNA1{StrandType:ss}|RNA2{StrandType:as}$	61.8
RNA1{r(A)p.r(G)p.r(U)p.r(G)p.r(C)p.r(C)p.r(C)p.r(A)p.r(C)p.r(A)p.r(A)p.r(C)p.r(U)p.r(A)p.r(C)p.r(A)p.r(A)p.r(G)p.r(A)p.d(T)p.d(T)}|RNA2{r(U)p.r(C)p.r(U)p.r(U)p.r(G)p.r(U)p.r(A)p.r(G)p.r(U)p.r(U)p.r(G)p.r(U)p.r(G)p.r(G)p.r(G)p.r(C)p.r(A)p.r(C)p.r(U)p.d(G)p.d(A)}$$$RNA1{StrandType:ss}|RNA2{StrandType:as}$	81.7
RNA1{r(A)p.r(G)p.r(U)p.r(U)p.r(U)p.r(G)p.r(G)p.r(C)p.r(G)p.r(C)p.r(A)p.r(G)p.r(C)p.r(C)p.r(U)p.r(A)p.r(C)p.r(G)p.r(C)p.d(T)p.d(T)}|RNA2{r(G)p.r(C)p.r(G)p.r(U)p.r(A)p.r(G)p.r(G)p.r(C)p.r(U)p.r(G)p.r(C)p.r(G)p.r(C)p.r(C)p.r(A)p.r(A)p.r(A)p.r(C)p.r(U)p.d(G)p.d(G)}$$$RNA1{StrandType:ss}|RNA2{StrandType:as}$	60.9
RNA1{r(A)p.r(U)p.r(C)p.r(A)p.r(A)p.r(U)p.r(G)p.r(U)p.r(C)p.r(G)p.r(U)p.r(C)p.r(C)p.r(U)p.r(C)p.r(U)p.r(U)p.r(C)p.r(A)p.d(T)p.d(T)}|RNA2{r(U)p.r(G)p.r(A)p.r(A)p.r(G)p.r(A)p.r(G)p.r(G)p.r(A)p.r(C)p.r(G)p.r(A)p.r(C)p.r(A)p.r(U)p.r(U)p.r(G)p.r(A)p.r(U)p.d(G)p.d(A)}$$$RNA1{StrandType:ss}|RNA2{StrandType:as}$	49.2
RNA1{r(A)p.r(U)p.r(C)p.r(A)p.r(U)p.r(C)p.r(A)p.r(U)p.r(C)p.r(A)p.r(C)p.r(C)p.r(A)p.r(C)p.r(C)p.r(A)p.r(U)p.r(G)p.r(G)p.d(T)p.d(T)}|RNA2{r(C)p.r(C)p.r(A)p.r(U)p.r(G)p.r(G)p.r(U)p.r(G)p.r(G)p.r(U)p.r(G)p.r(A)p.r(U)p.r(G)p.r(A)p.r(U)p.r(G)p.r(A)p.r(U)p.d(G)p.d(G)}$$$RNA1{StrandType:ss}|RNA2{StrandType:as}$	59.5
RNA1{r(A)p.r(U)p.r(C)p.r(C)p.r(U)p.r(C)p.r(A)p.r(U)p.r(C)p.r(C)p.r(C)p.r(A)p.r(A)p.r(G)p.r(A)p.r(U)p.r(G)p.r(A)p.r(G)p.d(T)p.d(T)}|RNA2{r(C)p.r(U)p.r(C)p.r(A)p.r(U)p.r(C)p.r(U)p.r(U)p.r(G)p.r(G)p.r(G)p.r(A)p.r(U)p.r(G)p.r(A)p.r(G)p.r(G)p.r(A)p.r(U)p.d(G)p.d(A)}$$$RNA1{StrandType:ss}|RNA2{StrandType:as}$	53.8
RNA1{r(A)p.r(U)p.r(C)p.r(U)p.r(G)p.r(C)p.r(G)p.r(A)p.r(A)p.r(A)p.r(U)p.r(A)p.r(C)p.r(A)p.r(U)p.r(C)p.r(G)p.r(C)p.r(U)p.d(T)p.d(T)}|RNA2{r(A)p.r(G)p.r(C)p.r(G)p.r(A)p.r(U)p.r(G)p.r(U)p.r(A)p.r(U)p.r(U)p.r(U)p.r(C)p.r(G)p.r(C)p.r(A)p.r(G)p.r(A)p.r(U)p.d(T)p.d(T)}$$$RNA1{StrandType:ss}|RNA2{StrandType:as}$	50.5
RNA1{r(A)p.r(U)p.r(G)p.r(C)p.r(G)p.r(U)p.r(A)p.r(G)p.r(A)p.r(C)p.r(A)p.r(C)p.r(A)p.r(C)p.r(C)p.r(U)p.r(C)p.r(C)p.r(A)p.d(T)p.d(T)}|RNA2{r(U)p.r(G)p.r(G)p.r(A)p.r(G)p.r(G)p.r(U)p.r(G)p.r(U)p.r(G)p.r(U)p.r(C)p.r(U)p.r(A)p.r(C)p.r(G)p.r(C)p.r(A)p.r(U)p.d(G)p.d(C)}$$$RNA1{StrandType:ss}|RNA2{StrandType:as}$	76.8
